Reference: ChEMBL document CHEMBL5352441, “Modulation of FLT3-ITD and CDK9 in acute myeloid leukaemia cells by novel proteolysis targeting chimera (PROTAC)” (2022)
One block for each molecule: values may come before it. Activity calls are given as the source filed them. The calls are words filed in the database; no cut-off is given here. Peptide text beside a SMILES is read from it. * marks the point of attachment. Cbz = O=C(OCc1ccccc1)*

Columns and labels:
[1] = biological target: Receptor-type tyrosine-protein kinase FLT3 (Homo sapiens) (UniProt P36888); test: Induction of FLT3 protein degradation in human MV4-11 cells at 0.2 uM incubated for 90 mins by immunoblot analysis; type: cell-based
[2] = biological target: Cyclin-dependent kinase 9 (Homo sapiens) (UniProt P50750); test: Induction of CDK9 protein degradation in human MV4-11 cells at 0.2 uM incubated for 90 mins by immunoblot analysis; type: cell-based
[3] = biological target: Receptor-type tyrosine-protein kinase FLT3 (Homo sapiens) (UniProt P36888); test: Inhibition of FLT3 signalling pathway in human MV4-11 cells assessed as reduction in ERK1/2 phosphorylation at T202/Y204 residues at 10 uM incubated for 90 mins by immunoblot analysis; type: cell-based
[4] = biological target: Receptor-type tyrosine-protein kinase FLT3 (Homo sapiens) (UniProt P36888); test: Inhibition of FLT3 signalling pathway in human MV4-11 cells assessed as reduction in STAT5 phosphorylation at Y694 residue at 10 uM incubated for 90 mins by immunoblot analysis; type: cell-based
MV4-11 [5] = test: Effect on CDK9 protein level in human MV4-11 cells at 10 uM incubated for 90 mins by immunoblot analysis; type: functional, cell-based
MV4-11 [6] = test: Effect on FLT3 protein level in human MV4-11 cells at 10 uM incubated for 90 mins by immunoblot analysis; type: functional, cell-based
MV4-11 [7] = test: Upregulation of FLT3 total protein level in CRBN-deficient human MV4-11 cells at 0.1 uM incubated for 16 hrs by immunoblot analysis; type: functional, cell-based
MV4-11 [8] = test: Downregulation of Bcl-2 gene expression in human MV4-11 cells at 0.1 uM incubated for 4 hrs by qRT-PCR analysis; type: functional, cell-based
MV4-11 [9] = test: Downregulation of MCL-1 gene expression in human MV4-11 cells at 0.1 uM incubated for 4 hrs by qRT-PCR analysis; type: functional, cell-based
MV4-11 [10] = test: Downregulation of HOXA9 gene expression in human MV4-11 cells at 0.1 uM incubated for 4 hrs by qRT-PCR analysis; type: functional, cell-based
MV4-11 [11] = test: Downregulation of Myc gene expression in human MV4-11 cells at 0.1 uM incubated for 4 hrs by qRT-PCR analysis; type: functional, cell-based
MV4-11 [12] = test: Downregulation of Myb gene expression in human MV4-11 cells at 0.1 uM incubated for 4 hrs by qRT-PCR analysis; type: functional, cell-based
MV4-11 [13] = test: Upregulation of FLT3 total protein level in human MV4-11 cells harboring FLT3-ITD mutation at 0.1 uM incubated for 16 hrs by immunoblot analysis; type: functional, cell-based
MV4-11 [14] = test: Downregulation of MEISI gene expression in human MV4-11 cells at 0.1 uM incubated for 4 hrs by qRT-PCR analysis; type: functional, cell-based
U-937 = test: Antiproliferative activity against human U-937 cells assessed as cell growth inhibition incubated for 72 hrs by resazurin dye based fluorescence analysis; type: functional
HL-60 = test: Antiproliferative activity against human HL-60 cells assessed as cell growth inhibition incubated for 72 hrs by resazurin dye based fluorescence analysis; type: functional
RS4-11 = test: Antiproliferative activity against human RS4-11 cells assessed as cell growth inhibition incubated for 72 hrs by resazurin dye based fluorescence analysis; type: functional
Kasumi 1 = test: Antiproliferative activity against human Kasumi 1 cells assessed as cell growth inhibition incubated for 72 hrs by resazurin dye based fluorescence analysis; type: functional
[15] = biological target: CDK9/cyclin T1 (Homo sapiens) (UniProt O60563+P50750); test: Inhibition of human CDK9/Cyclin T1 assessed as residual activity at 100 nM relative to control; type: protein-complex assay
MOLM-13 = test: Antiproliferative activity against human MOLM-13 cells harboring FLT3-ITD mutation assessed as cell growth inhibition incubated for 72 hrs by resazurin dye based fluorescence analysis; type: functional
CCRF-CEM = test: Antiproliferative activity against human CEM cells assessed as cell growth inhibition incubated for 72 hrs by resazurin dye based fluorescence analysis; type: functional
[16] = biological target: Receptor-type tyrosine-protein kinase FLT3 (Homo sapiens) (UniProt P36888); test: Inhibition of human FLT3 assessed as residual activity at 100 nM relative to control
MV4-11 [17] = test: Antiproliferative activity against human MV4-11 cells harboring FLT3-ITD mutation assessed as cell growth inhibition incubated for 72 hrs by resazurin dye based fluorescence analysis; type: functional
MV4-11 [18] = test: Antiproliferative activity against CRBN-deficient human MV4-11 cells assessed as cell growth inhibition incubated for 72 hrs by resazurin dye based fluorescence analysis; type: functional
THP-1 = test: Antiproliferative activity against human THP-1 cells assessed as cell growth inhibition incubated for 72 hrs by resazurin dye based fluorescence analysis; type: functional

Chain of Receptor-type tyrosine-protein kinase FLT3 (Homo sapiens) (P36888 whole entry): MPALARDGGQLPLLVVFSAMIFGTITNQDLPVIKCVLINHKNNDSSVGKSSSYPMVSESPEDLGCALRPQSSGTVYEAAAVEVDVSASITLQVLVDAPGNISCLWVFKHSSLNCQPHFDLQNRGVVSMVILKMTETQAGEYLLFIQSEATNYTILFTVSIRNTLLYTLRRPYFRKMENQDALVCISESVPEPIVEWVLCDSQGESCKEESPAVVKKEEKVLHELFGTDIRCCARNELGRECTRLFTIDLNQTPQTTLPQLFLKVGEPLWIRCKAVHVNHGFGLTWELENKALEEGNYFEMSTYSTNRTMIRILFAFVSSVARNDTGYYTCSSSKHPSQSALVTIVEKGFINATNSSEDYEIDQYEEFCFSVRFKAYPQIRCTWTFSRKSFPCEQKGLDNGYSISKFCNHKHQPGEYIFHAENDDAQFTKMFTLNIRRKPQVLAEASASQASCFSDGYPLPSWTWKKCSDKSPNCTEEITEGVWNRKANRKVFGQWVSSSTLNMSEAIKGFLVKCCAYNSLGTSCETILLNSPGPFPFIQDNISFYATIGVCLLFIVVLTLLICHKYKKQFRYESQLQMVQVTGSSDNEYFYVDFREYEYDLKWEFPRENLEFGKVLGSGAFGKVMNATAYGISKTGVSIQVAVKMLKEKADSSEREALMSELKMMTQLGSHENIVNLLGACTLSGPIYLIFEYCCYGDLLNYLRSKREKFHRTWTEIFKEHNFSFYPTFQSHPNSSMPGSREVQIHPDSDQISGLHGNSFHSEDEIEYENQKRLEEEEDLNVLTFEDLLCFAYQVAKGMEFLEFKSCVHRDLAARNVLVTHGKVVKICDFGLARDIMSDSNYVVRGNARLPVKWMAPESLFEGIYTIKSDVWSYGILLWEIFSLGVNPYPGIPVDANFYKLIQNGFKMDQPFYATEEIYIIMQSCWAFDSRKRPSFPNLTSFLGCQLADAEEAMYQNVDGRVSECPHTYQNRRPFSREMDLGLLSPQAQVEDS
Chain of Cyclin-dependent kinase 9 (Homo sapiens) (P50750 whole entry): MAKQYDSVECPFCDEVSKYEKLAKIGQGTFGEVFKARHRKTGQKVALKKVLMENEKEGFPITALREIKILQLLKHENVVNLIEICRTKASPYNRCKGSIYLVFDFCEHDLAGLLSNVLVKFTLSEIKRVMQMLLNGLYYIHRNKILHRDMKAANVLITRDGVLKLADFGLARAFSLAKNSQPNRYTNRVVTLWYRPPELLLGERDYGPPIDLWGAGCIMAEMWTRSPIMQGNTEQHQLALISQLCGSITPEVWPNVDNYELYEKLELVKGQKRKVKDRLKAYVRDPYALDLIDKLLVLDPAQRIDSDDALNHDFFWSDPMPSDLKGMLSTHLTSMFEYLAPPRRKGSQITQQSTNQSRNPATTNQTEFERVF

Structure (SMILES): CNC(=O)c1cc(Oc2ccc(NC(=O)Nc3ccc(Cl)c(C(F)(F)F)c3)cc2)ccn1
- Activity (MV4-11 [7]): Active
- Activity (MV4-11 [8]): inactive
- Activity (MV4-11 [9]): inactive
- Activity (MV4-11 [10]): inactive
- Activity (MV4-11 [11]): inactive
- Activity (MV4-11 [12]): inactive
- Activity (MV4-11 [13]): Active
- Activity (MV4-11 [14]): inactive

Structure (SMILES): CC(C)(C)c1cc(NC(=O)Nc2ccc(-c3cn4c(n3)sc3cc(OCCN5CCOCC5)ccc34)cc2)no1
- Activity (MV4-11 [7]): Active
- Activity (MV4-11 [8]): inactive
- Activity (MV4-11 [9]): inactive
- Activity (MV4-11 [10]): inactive
- Activity (MV4-11 [11]): inactive
- Activity (MV4-11 [12]): inactive
- Activity (MV4-11 [13]): Active
- Activity (MV4-11 [14]): inactive

Second part, led by results:

- Activity [1]: inactive
- Activity [2]: inactive
Structure (SMILES): CC(C)C[C@@H](C=O)NC(=O)[C@H](CC(C)C)NC(=O)[C@H](CC(C)C)NC(=O)OCc1ccccc1 (Cbz-Leu-Leu-Leu-aldehyde)

- inhibition [3]: inactive
- inhibition [4]: inactive
Structure (SMILES): O=C1CCC(N2C(=O)c3cccc(O)c3C2=O)C(=O)N1 (stereo not drawn)
- Activity (MV4-11 [5]): inactive
- Activity (MV4-11 [6]): inactive

- GI50 (U-937): 695 nM
- GI50 (HL-60): 1520 nM
- GI50 (RS4-11): 295 nM
- Activity [15]: 3%
- GI50 (MOLM-13): 8 nM
- GI50 (CCRF-CEM): 1280 nM
- Activity [16]: 2%
- GI50 (MV4-11 [17]): 9 nM
- GI50 (MV4-11 [18]): 8 nM
- GI50 (THP-1): 681 nM
Structure (SMILES): CCN1CCN(c2ccc(Nc3nc(NC4CCC(N)CC4)nc4c3ncn4C3CCCC3)cc2)CC1 (stereo not drawn)
- GI50 (Kasumi 1): 534 nM
